Experiments:
[1] = tested on: patients with an elevated LDL-C (≧100 mg/dL or 2.59 mmol/L) treated with a stable dose of atorvastatin 10 mg; experiment: Study 2: randomized, double-blind, placebo-controlled 8-week study of 316P 150 mg E2W with atorvastatin 10 mg or 80 mg; format: in vivo, human; details: placebo+atorvastatin 80 mg group, previously on atorvastatin 10 mg
Procedure: This was a randomized, double-blind, 3-parallel-groups, placebo-controlled, fixed dose/dose regimen, multicenter, 8-week study in subjects with primary hypercholesterolemia, aged 18-75 years. One aim of this study was to assess the efficacy and safety of 316P in patients with an elevated LDL-C (≧100 mg/dL or 2.59 mmol/L) treated with a stable dose of atorvastatin 10 mg.
During the screening period, patients had to be stabilized to atorvastatin 10 mg for at least 6 weeks, if they are not already. Then, after 1 additional screening week, patients were centrally randomized via IVRS/IWRS in a 1:1:1 ratio to one of the 3 treatment groups (placebo for 316P+atorvastatin 80 mg, 316P 150 mg E2W+atorvastatin 80 mg, 316P 150 mg E2W+atorvastatin 10 mg) and treated in a double-blind manner for approximately 8 weeks. 316P was administered every 2 weeks on site trough subcutaneous injection and atorvastatin was administered orally once daily in the evening at home. The double-blind treatment period was then followed by an 8-week follow-up period.
Inclusion criteria: • Patients (patients receiving a lipid lowering treatment other than atorvastatin/or not at stable dose of atorvastatin 10 mg for at least 6 weeks prior to screening period, or drug naive patients) with primary hypercholesterolemia likely to have low-density lipoprotein cholesterol (LDL-C)≧100 mg/dL (≧2.59 mmol/L) at the end of the run-in period on atorvastatin therapy (Week-1). • OR • Patients with primary hypercholesterolemia treated with stable dose of atorvastatin 10 mg for at least 6 weeks prior to screening period and likely to have low-density lipoprotein cholesterol (LDL-C)≧100 mg/dL (≧2.59 mmol/L) at the screening visit (Week-1).
Duration of Study Period Per Subject:
• Arm 1: The first group of patients receives one subcutaneous injection of 1 mL of antibody 316P, administered in the abdomen every two weeks, with a dose regimen at 150 mg, for a double-blind treatment period of 8 weeks; • Atorvastatin is administered once per day at a stable dose of 10 mg as background therapy. • Atorvastatin is administered at a dose of 80 mg once during the double-blind treatment period of 8 weeks. • Arm 2: The second group of patients receives one subcutaneous injection of 1 mL of a placebo solution, administered in the abdomen every two weeks, with a dose regimen at 150 mg, for a double-blind treatment period of 8 weeks; • Atorvastatin is administered once per day at a stable dose of 10 mg as background therapy. • Atorvastatin is administered at a dose of 80 mg (2 over-encapsulated atorvastatin 40 mg tablets) once during the double-blind treatment period of 8 weeks. • Arm 3: The third group of patients receives one subcutaneous injection of 1 mL of antibody 316P, administered in the abdomen every two weeks, with a dose regimen at 150 mg, for a double-blind treatment period of 8 weeks; • Atorvastatin is administered once per day at a stable dose of 10 mg as background therapy. • Atorvastatin is administered at a dose of 10 mg (1 over-encapsulated atorvastatin 10 mg tablet+1 matching placebo tablet) once during the double-blind treatment period of 8 weeks. Primary and Key Secondary Endpoints Primary Endpoints
The primary efficacy variable is the percent change in calculated LDL-C from baseline to Week 8, which is defined as: 100×(calculated LDL-C value at Week 8-calculated LDL-C value at baseline)/calculated LDL-C value at baseline.
In case of unavailable calculated LDL-C value at Week 8 as defined above, then the last calculated LDL-C value measured during the efficacy period and before the Week 8 time window was used to impute the missing Week 8 calculated LDL-C value (Last Observation Carried Forward [LOCF] procedure). […]

male Syrian hamster = experiment: Study 4: cholesterol lowering effect of 316P alone and with atorvastatin in hamster; format: in vivo; details: treatment alone up to the maximal tolerated dose
From the text: This is an animal study on the cholesterol lowering effect of 316P, a fully human PCSK9 blocking monoclonal antibody in male Syrian hamster
The aim of this study was to investigate the effect of 316P, a human monoclonal antibody to human PCSK9, alone and in combination with statins on expression of the hepatic LDLR and the resulting effects on serum LDL-C.
The maximal effect on LDL-C (−17/−27/−60%) was seen within 7 days. PK data of 316P are in line with the dose-dependent effect on LDL-C.

[2] = tested on: patients with genotype-confirmed hoFH; details: ezetimibe 10 mg/day added to maximal dose of statins; cited from earlier work

| Structure (SMILES) | median reduction from baseline in LDL-C at 8 weeks [1] [%] | LDL-C (male Syrian hamster) | hepatic LDLR expression (male Syrian hamster) | total reduction of LDL-C levels [2] [%] |
| --- | --- | --- | --- | --- |
| CC(C)c1c(C(=O)Nc2ccccc2)c(-c2ccccc2)c(-c2ccc(F)cc2)n1CC[C@@H](O)C[C@@H](O)CC(=O)O [atorvastatin, reference compound] | −26.9 | did not decrease LDL-C | no effect | – |
| O=C1[C@H](CC[C@H](O)c2ccc(F)cc2)[C@@H](c2ccc(O)cc2)N1c1ccc(F)cc1 [ezetimibe] | – | – | – | 27 |

Reference: patent publication US9682013B2, “Pharmaceutical compositions comprising human antibodies to PCSK9” (SANOFI BIOTECHNOLOGY, priority 2011, dated 2017)
